Measurements reported in US20160029683A1, “LOW CALORIE INFANT FORMULA CONTAINING BETA-HYDROXY-BETA-METHYLBUTYRIC ACID” (ABBOTT LABORATORIES, priority 2013, published 2016).
Entries after “also recorded” stand apart in the source; their conditions may differ.

Key:
[1] = test system: eEF2; test: Phosphorylation of eEF2 in muscles; type: in vivo, neonatal pigs
Description: (§1) Overnight fasted neonatal pigs (5-7 days old) were infused with HMB with 0, 20, 100, or 400 μmol·kg^−1·hr^−1 HMB. Blood plasma concentrations of the following circulating substrates were measured. HMB was measured using gas chromatography per the method set forth in: Nissen, Steven (1990). Analysis of β-Hydroxy-β-methyl Butyrate in Plasma by Gas […] Chromatography and Mass Spectrometry Analytical Biochemistry 188, 17-19.
(§2) At the end of the infusion, the piglets were sacrificed and the fractional protein synthesis rates were measured by measuring ^3H incorporation into protein fractions after a flooding dose of L[4-^3H]phenylalanine using the method set forth in Garlick P. J. (1980). A rapid and convenient technique for measuring the rate of protein synthesis in tissues by injection of [3H]Phenylalanine Biochem J 192:719-723. Activation of translation initiation was measured in the stomach, duodenum, jejunum, colon, pancreas, kidney, brain and skin. The abundance of intracellular proteins involved in signaling of protein synthesis and in processes related to protein degradation was measured in tissue homogenates by immunoblotting using commercially available antibodies.
The formation of phosphorylation of eEF2 regulates […].

[2] = test system: amino acid transporters; test: Level of amino acid transporters; type: in vivo, neonatal pigs; conditions: overall analysis of the piglet data
Description: as §2

[3] = Blood plasma concentration of HMB in piglets infused with HMB; type: in vivo, neonatal pigs; conditions: pig, intravenous
Description: as §1

[4] = test system: protein degradation in the muscles of adults; conditions: literature (Smith 2004, 2005); cited from earlier work
[5] = test system: protein synthesis in longissimus dorsi, gastrocnemius, soleus, diaphragm, duodenum and brain; test: Comparison of protein synthesis rates after infusion of HMB or leucine; type: in vivo, neonatal pigs; conditions: HMB 20, 100 or 400 μmol kg^−1 h^−1 vs leucine 400 μmol·kg^−1·hour^−1
Description: as §1, §2

[6] = test system: elF2α; test: Phosphorylation of elF2α in muscles; type: in vivo, neonatal pigs
Description: as §1, §2
The formation of phosphorylation of elF2α regulates tRNA-ribosome binding.

[7] = test system: mTORC1; test: mTORC1 signaling to translation (overall analysis); type: in vivo, neonatal pigs; conditions: overall analysis of the piglet data
Description: as §1, §2

[8] = test system: S6K1; test: Phosphorylation of S6K1 in muscles (immunoblotting); type: in vivo, neonatal pigs
Description: as §1, §2
The phosphorylation of S6K1 is an indicator of mTORC1 signaling to translation.

[9] = test system: LC3-II/LC3-I; test: Ratio of LC3-II/LC3-I in muscles; type: in vivo, neonatal pigs
Description: as §1, §2
The ratio of LC3-II/LC3-I is an indicator of autophagy/lysosomal protein degradation.

[10] = test system: elF4E·elF4G complex; test: Formation of the active elF4E·elF4G complex in muscles; type: in vivo, neonatal pigs
[11] = test system: markers of protein degradation; test: Markers of protein degradation (overall analysis); type: in vivo, neonatal pigs; conditions: overall analysis of the piglet data
Description: as §1, §2

[12] = test system: 4EBP1; test: Phosphorylation of 4EBP1 in muscles (immunoblotting); type: in vivo, neonatal pigs
Description: as §1, §2
The phosphorylation of 4EBP1 is an indicator of mTORC1 signaling to translation.

[13] = test system: protein synthesis in the spleen; test: Fractional rate of protein synthesis in the spleen of HMB-infused piglets; type: in vivo, neonatal pigs; conditions: infusion rate of 20 μmol·kg^−1·hour^−1 HMB for one hour
Description: as §1, §2

[14] = test system: protein synthesis in the lung; test: Fractional rate of protein synthesis in the lung of HMB-infused piglets; type: in vivo, neonatal pigs; conditions: infusion rate of 20 μmol·kg^−1·hour^−1 HMB for one hour
Description: as §1, §2

[15] = test system: MURF1; test: Expression of MURF1 in muscles; type: in vivo, neonatal pigs
Description: as §1, §2
MURF1 is a muscle-specific ubiquitin ligase.

[16] = test system: protein synthesis in skeletal muscles; test: Fractional rate of protein synthesis in skeletal muscles of HMB-infused piglets; type: in vivo, neonatal pigs
Description: as §1, §2

[17] = test system: Atrogin-1; test: Expression of Atrogin-1 in muscles; type: in vivo, neonatal pigs
Description: as §1, §2
Atrogin-1 is a muscle-specific ubiquitin ligase.

[18] = 20 μmol·kg^−1·hour^−1 HMB for one hour
[19] = 100 μmol·kg^−1·hour^−1 HMB for one hour
[20] = 20 μmol·kg^−1·hour^−1 HMB for one hour, diaphragm
[21] = 20 μmol·kg^−1·hour^−1 HMB for one hour, longissimus dorsi, gastrocnemius and soleus
[22] = 100 μmol·kg^−1·hour^−1 HMB for one hour, longissimus dorsi, gastrocnemius and soleus
[23] = 100 μmol·kg^−1·hour^−1 HMB for one hour, diaphragm

In the case of `CC(C)(O)CC(=O)O` [HMB, beta-hydroxy-beta-methylbutyric acid], the “phosphorylation of eEF2” value [1, 18] was “did not affect”, the “phosphorylation of eEF2” value [1, 19] was “did not affect” and the “level of amino acid transporters” value [2] was “did not affect”. For the same compound, the concentration at 1 h ([3]; piglets infused with 20 μmol·kg^−1·hr^−1 HMB) was 90 µM, the concentration at 1 h ([3]; piglets infused with 100 μmol·kg^−1·hr^−1 HMB) was 316 µM and the concentration at 1 h ([3]; piglets infused with 400 μmol·kg^−1·hr^−1 HMB) was 1400 µM. The “protein degradation in the muscles of adults” value [4] was “attenuates protein degradation”, the “effectiveness in increasing protein synthesis compared with leucine” value [5] was “equal to or more effective; also recorded: as effective as leucine” and the “phosphorylation of elF2α” value [6, 18] was “did not affect”. For the same compound, the “phosphorylation of elF2α” value [6, 19] was “did not affect”, the “activation of protein synthesis via mTORC1” value [7] was “activated protein synthesis by inducing mTORC1” and the “phosphorylation of S6K1” value [8, 20] was “increased”. For the same compound, the “phosphorylation of S6K1” value [8, 21] was “increased”, the “phosphorylation of S6K1” value [8, 22] was “increased” and the “ratio of LC3-II/LC3-I” value [9, 18] was “did not affect”. For the same compound, the “ratio of LC3-II/LC3-I” value [9, 19] was “did not affect”, the “formation of active eIF4E·eIF4G complex” value [10, 20] was “increased” and the “formation of active eIF4E·eIF4G complex” value [10, 21] was “increased”. The “formation of active eIF4E·eIF4G complex” value [10, 23] was “not”, the “formation of active eIF4E·eIF4G complex” value [10, 22] was “increased” and the “markers of protein degradation” value [11] was “did not affect”. For the same compound, the “phosphorylation of 4EBP1” value [12, 20] was “increased”, the “phosphorylation of 4EBP1” value [12, 21] was “increased” and the “phosphorylation of 4EBP1” value [12, 23] was “not”. For the same compound, the “phosphorylation of 4EBP1” value [12, 22] was “increased”, the “protein synthesis in the spleen” value [13] was “increase” and the “protein synthesis in the lung” value [14] was “increase”. The “expression of MURF1” value [15, 18] was “did not affect”, the “expression of MURF1” value [15, 19] was “did not affect” and the “fractional rates of protein synthesis in the skeletal muscles” value ([16]; 20 μmol·kg^−1·hour^−1 HMB, longissimus dorsi, gastrocnemius, soleus and diaphragm, P<0.05) was “increased”. The “protein synthesis in the gastrocnemius, soleus and diaphragm muscles” value ([16]; 100 μmol·kg^−1·hour^−1 HMB) was “not significantly”, the “protein synthesis in the longissimus dorsi muscle” value ([16]; 100 μmol·kg^−1·hour^−1 HMB, P<0.05) was “increased” and the “protein synthesis in the skeletal muscles” value ([16]; 400 μmol·kg^−1·hour^−1 HMB) was “no significant effect”. For the same compound, the “impact on protein synthesis in 4 muscles (fast twitch, slow twitch, voluntary and involuntary)” value ([16]; highest dose, 400 μmol kg^−1 h^−1, compared with other doses) was “least impact”, the “impact on protein synthesis in 4 muscles (fast twitch, slow twitch, voluntary and involuntary)” value ([16]; lowest dose of HMB 20 μmol kg^−1 h^−1, compared with other doses) was “greatest impact” and the “expression of Atrogin-1” value [17, 18] was “did not affect”. For the same compound, the “expression of Atrogin-1” value [17, 19] was “did not affect”.
